Assays:
[1] = system: HepG2 (human hepatocellular carcinoma); assay: MTS cytotoxicity test, HepG2; format: cell-based; settings: HepG2 (liver), read-out: EC50 (concentration where half of the cells died, MTS test)
Experimental: (§1) In our experiment, HepG2 and Hep3B (human hepatocellular carcinoma), SUM149PT (human breast tumour), K562 (human erythroblastic leukaemia, U87 (human glioma), CCRF-CEM (human leukaemia) cell cultures were used; these were grown in the following medium: U87, CCRF-CEM; Dulbecco's Modified Eagle Medium (D-MEM) (high glucose) (Gibco BRL, Carlsbad, Calif., USA), penicillin (50 IU/ml-streptomycin ([…]), 10% foetal cattle serum.
(§2) 1:1 mixture of HepG2, Hep3B, SUM149PT: Dulbecco's Modified Eagle Medium (D-MEM) (high glucose) (Gibco BRL, Carlsbad, Calif., USA) and Nutrient Mixture F-12 Ham (Sigma, St. Louis, Mo., USA), penicillin (50 IU/ml)-streptomycin ([…]), 10% foetal cattle serum.
(§3) The cells were placed into 96-well microtitration plates (10 000 cells/well), and after 24 hours the cells were incubated with the various substances. After incubation MTS test (3-(4,5-dimethylthiazol-2-yl)-5-(3-carboxymethoxyphenyl)-2-(4-sulphophenyl)-2H-tetrazolium) (Promega, Madison, Wis., USA) was conducted adding it in a final concentration of 0.5 mg/ml to the cells, which were then incubated at 37° C. for 1 hour. The cells were washed with PBS and the formazan dye was dissolved in isopropanol. The amount of the formazan dye transformed was measured by means of a Powerwave reader (Biotek, Winooski, Vt.) at 570 nm; background measurement 690 nm. The calibration curve was obtained in such a way that the capacity of the serial dilutions of the cells to transform MTS was measured and the viable cell count was calculated using Gen5 software.
(§4) In the table the EC50 values of each substance is presented (the concentration where half of the cells died based on the results of the MTS test).

[2] = system: K562 (human erythroblastic leukaemia); assay: MTS cytotoxicity test, K562; format: cell-based; settings: read-out: EC50 (concentration where half of the cells died, MTS test)
Experimental: as §1, §3, §4

U87 (human glioma) = assay: MTS cytotoxicity test, U87; format: cell-based; settings: U-87 MG, read-out: EC50 (concentration where half of the cells died, MTS test)
Experimental: as §1, §3, §4

[3] = target: T1, Matrix metalloproteinase 2 (MMP-2, 72 kDa gelatinase) (Rattus norvegicus, UniProt P33436); assay: Gelatinase activity in gel after electrophoresis of H9c2 supernatant (MMP-2); format: biochemical; settings: 30 uM, substance present during incubation of the gel
T1 construct: endogenous in cells; host or cells: H9c2 rat embryonic myocardial cells (culture supernatant)
T1 sequence (P33436 110-662): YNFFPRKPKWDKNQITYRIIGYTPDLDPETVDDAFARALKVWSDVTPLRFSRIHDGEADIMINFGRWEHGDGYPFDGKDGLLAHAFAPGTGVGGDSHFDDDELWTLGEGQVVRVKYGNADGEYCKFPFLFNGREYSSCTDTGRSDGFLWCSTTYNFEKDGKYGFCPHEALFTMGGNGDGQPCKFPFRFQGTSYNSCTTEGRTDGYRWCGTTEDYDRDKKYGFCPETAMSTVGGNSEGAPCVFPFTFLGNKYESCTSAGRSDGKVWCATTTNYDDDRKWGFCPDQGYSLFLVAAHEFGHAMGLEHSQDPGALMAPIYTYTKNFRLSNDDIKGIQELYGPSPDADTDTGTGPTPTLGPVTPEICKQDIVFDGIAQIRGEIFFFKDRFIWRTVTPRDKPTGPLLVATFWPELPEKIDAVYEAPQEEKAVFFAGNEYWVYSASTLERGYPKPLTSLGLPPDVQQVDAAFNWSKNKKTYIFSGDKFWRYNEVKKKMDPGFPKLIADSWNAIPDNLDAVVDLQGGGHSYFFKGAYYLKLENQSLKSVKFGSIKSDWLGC
Experimental: (§5) H9c2 rat embryonic myocardial cells (from ATCC, Rockville, Md., USA) were grown in Dulbecco's modified eagle's medium containing 10% cattle serum, 4 mM L-glutamine (Sigma-Aldrich, Hungary), 100 IU/ml penicillin and 100 ug/ml streptomycin.

[4] = target: T2, Matrix metalloproteinase 9 (MMP-9, 92 kDa gelatinase) (Rattus norvegicus, UniProt P50282); assay: Gelatinase activity in gel after electrophoresis of H9c2 supernatant (MMP-9); format: biochemical; settings: 30 uM, substance present during incubation of the gel
T2 construct: endogenous in cells; host or cells: H9c2 rat embryonic myocardial cells (culture supernatant)
Experimental: as §5

Lewis rats = assay: Heterotopic heart transplantation, reperfusion injury; format: in vivo, rat; settings: 3 mg/kg
Experimental: A heterotropic heart transplant experiment model was performed in a way described earlier (Poly(ADP-Ribose): inhibition of polymerase reduces the reperfusion injury occurring after heart transplantation (Szabó et al. 2002) , Briefly: the donor hearts were transplanted from Lewis rats. After ischemic protection performed at 4° C. for 1 hour, the hearts were implanted intraabdominally via anastomising the aorta and the pulmonary artery of the donor heart with the abdominal aorta or vena cava of the recipient rat. Care of all animals was performed by people in line with the requirements of “Principles of Laboratory Animal Care”; National Society of Medical Research, and the Guide for the Care and Use of Laboratory Animals prepared by the National Academy of Sciences; publisher: National Institutes of Health (NIH Publication No. 86-23, revised 1996).
The functional measurements of the transplant were carried out as follows: the left ventricular systolic pressure (LVSP), left ventricular end diastolic pressure (LVEDP), rate of the change of blood pressure (dP/dt) and relaxation time constant (TE) were measured by means of a Millar micromanometer (Millar Instruments, Inc.), with different LV, using an intraventricular ballon. The total coronary blood flow (CBF) was measured on the donor aorta with perivascular ultrasonic flow sample. After determination of the baseline, the endothelium-dependent vasodilator acetylcholine (ACH, 1 nmol/l, 0.2 ml) and bradykinin (BK 0.1 nmol/l, 0.2 ml), and the endothelium-independent vasodilator sodium nitroprussid (SNP, 10 nmol/l, 0.2 ml) were added directly into the coronary arteries of the transplant through the donor aorta. Between the infusions, CBP was allowed to return to the baseline level. The vasodilator response was expressed as the maximum percentage change of CBF from the baseline.
Two transplant groups were studied (n=6/in each group). Just before loosening the aorta clamp, slow injection of common salt solution (control group) or the compound according to Example 1 (3 mg/kg) was started and it was continued during the first 5 minutes of the reperfusion period.
Measurement of the systolic and diastolic function and CBF in group A (control) and group B (compound according to Example 1) was performed 1 hour after reperfusion.

[5] = system: CCRF-CEM (human leukaemia); assay: MTS cytotoxicity test, CCRF-CEM; format: cell-based; settings: read-out: EC50 (concentration where half of the cells died, MTS test)
Experimental: as §1
CCRF-CEM: RPMI Media 1640 (Gibco BRL, Carlsbad, Calif., USA), penicillin (50 IU/ml-streptomycin ([…]), 10% foetal cattle serum.
as §3, §4

[6] = system: SUM149PT (human breast tumour); assay: MTS cytotoxicity test, SUM149PT; format: cell-based; settings: read-out: EC50 (concentration where half of the cells died, MTS test)
Experimental: as §1, §2, §3, §4

[7] = system: Hep3B (human hepatocellular carcinoma); assay: MTS cytotoxicity test, Hep3B; format: cell-based; settings: Hep3B (liver), read-out: EC50 (concentration where half of the cells died, MTS test)
Experimental: as §1, §2, §3, §4

Wistar rats = assay: Forced swimming test; format: in vivo, rat; settings: 30 mg/kg, previous experiments
Experimental: Wistar rats received from Charles River Laboratories (Budapest, Hungary) were used as test animals. App. 2 month rats were used (200-300 g body weight). The animals were conditioned for app. 1 week. The animals received standard laboratory food (Charles River Laboratories, Budapest, Hungary) and tap water ad libitum. The temperature and humidity were kept at 22±2° C. and 60±10%, respectively. The rats were kept in groups of 5 in 45×35×25 cm Makrolon cages. Day/night cycles of 12 hours were used; the light was switched off at 19:00. The experiments were conducted in the daylight period. The experiments were conducted in accordance with the European Communities Council Directive of 24 Nov. 1985 (86/609/EEC, according to the control and approval of the Animal Welfare Committee of the Institute of Experimental Medicine).
Rats were forced to swim twice as described in the following publication: Porsolt et al., 1978. On the first day every rat was placed in a 15 cm wide, 35 cm high glass cylinder filled with water to 30 cm. […] Behaviour of the animals was recorded by a video camera located 2 meters from the cylinders. The following behaviour factors were recorded: struggling (the animal tries to leave the cylinder by climbing on the walls); swimming (swimming round in the cylinder) and floating (the animal makes only the movements necessary to keep its head above the wafer). […]

[8] = after 60 minute reperfusion, vs control

T2 sequence (P50282 108-708): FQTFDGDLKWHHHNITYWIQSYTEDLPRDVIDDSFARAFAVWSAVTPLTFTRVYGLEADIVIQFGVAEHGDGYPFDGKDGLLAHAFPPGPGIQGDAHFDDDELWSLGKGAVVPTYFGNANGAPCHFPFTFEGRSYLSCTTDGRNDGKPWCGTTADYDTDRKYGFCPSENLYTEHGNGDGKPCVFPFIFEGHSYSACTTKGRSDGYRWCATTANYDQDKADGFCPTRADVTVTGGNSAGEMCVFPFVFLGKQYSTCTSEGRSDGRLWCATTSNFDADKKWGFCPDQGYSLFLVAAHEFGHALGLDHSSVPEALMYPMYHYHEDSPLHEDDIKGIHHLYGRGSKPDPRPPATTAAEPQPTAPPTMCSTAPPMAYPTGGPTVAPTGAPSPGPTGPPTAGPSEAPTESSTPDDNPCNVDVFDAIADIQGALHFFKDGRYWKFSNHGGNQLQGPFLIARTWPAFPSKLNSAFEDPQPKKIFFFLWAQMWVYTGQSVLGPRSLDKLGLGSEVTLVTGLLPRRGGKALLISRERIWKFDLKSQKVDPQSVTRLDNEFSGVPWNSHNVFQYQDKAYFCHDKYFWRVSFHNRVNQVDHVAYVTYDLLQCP

SMILES	EC50 [1]	EC50 [2]	EC50 (U87 (human glioma))	EC50 [5]	EC50 [6]	EC50 [7]	other results
Cc1cccc(NC(c2ccc(C(F)(F)F)cc2F)c2ccc3cccnc3c2O)n1 (stereo not shown) [7-((6-methylpyridin-2-ylamino)(2-fluoro-4-(trifluoromethyl)phenyl)methyl)quinolin-8-ol]	1000 nM	1500 nM	2500 nM				
Cc1cccc(NC(c2ccc([N+](=O)[O-])cc2)c2ccc3cccnc3c2O)n1 (stereo not shown) [Example 1, 7-((6-methylpyridin-2-ylamino) (4-nitrophenyl)methyl)quinolin-8-ol]	500 nM	1000 nM	2500 nM	1000 nM	10000 nM		inhibition of 72 kDa gelatinase (MMP-2) [3]: completely inhibited; inhibition of 92 kDa gelatinase (MMP-9) [4]: inhibited the 92 kDa gelatinase (MMP-9) as well, hut to a less extent than the 72 kDa gelatinase; LVEDP (left ventricular end diastolic pressure) (Lewis rats; [8]): did not show changing values between the groups; LVSP (left ventricular systolic pressure) (Lewis rats; [8]): significantly (P=0.05) higher; peak positive dP/dt (Lewis rats; [8]): significantly (P=0.05) higher; systolic functional recovery (Lewis rats; [8]): significantly better; reperfusion injury after heart transplantation (Lewis rats; injection at start of reperfusion): Reduces Reperfusion Injury; systolic heart function curves (Lewis rats; vs group treated with the carrier (FIG. 1a, 1b)): significant drift to the left
CCOC(=O)c1ccc(NC(c2ccc([N+](=O)[O-])cc2)c2ccc3cccnc3c2O)cc1 (stereo not shown) [Example 2, Ethyl 4-((8-hydroxyquinolin-7-yl) (4-nitrophenyl)methylamino)benzoate]	2500 nM		4000 nM	1000 nM		5000 nM	
Oc1c(C(Nc2ccc(C(F)(F)F)cc2)c2ccccn2)ccc2cccnc12 (stereo not shown) [Example 5, 7-[pyridin-2-yl-(4-trifluoromethyl-phenylamino)-methyl]-quinolin-8-ol]	2000 nM		3500 nM	100 nM		2000 nM	
Cc1cccc(NC(c2ccc(C(F)(F)F)cc2)c2ccc3cccnc3c2O)n1 (stereo not shown) [Example 7, 7-[(6-methyl-pyridin-2-ylamino)-(4-trifluoromethyl-phenyl)-methyl]-quinolin-8-ol]	500 nM	15000 nM		300 nM		5000 nM	
Cc1ccnc(NC(c2ccc(C(F)(F)F)cc2)c2ccc3cccnc3c2O)c1 (stereo not shown) [Example 8, 7-[(4-methyl-pyridin-2-ylamino)-(4-trifluoromethylphenyl)-methyl]-quinolin-8-ol]		8000 nM			10000 nM		
Cc1ccnc(NC(c2ccc(C(F)(F)F)cc2)c2ccc3cccnc3c2O)n1 (stereo not shown) [Example 10, 7-((4-methylpyrimidin-2-ylamino) (4-(trifluoromethyl)phenyl)methyl)quinolin-8-ol]	1000 nM	7000 nM	5000 nM		5000 nM		
Cc1ccnc(NC(c2ccccc2O)c2ccc3cccnc3c2O)n1 (stereo not shown) [Example 11, 7-[(2-hydroxyphenyl)-(4-methyl-pyrimidin-2-ylamino)-methyl]-quinolin-8-ol]	1000 nM	5000 nM					
Cc1cccc(NC(c2ccc(F)c(F)c2)c2ccc3cccnc3c2O)n1 (stereo not shown) [Example 16, 7-((6-methylpyridin-2-ylamino) (3,4-difluorophenyl)methyl)quinolin-8-ol]	5000 nM	1500 nM	2500 nM				
CN(C)CCCN1c2ccccc2CCc2ccccc21 [impipramine, imipramine]							floating in forced swimming test (Wistar rats): reliably reduced floating

From US8871937B2, “8-hydroxy-quinoline derivatives” (“AVIDIN” Kutato, Fejleszto es Kereskedelmi Korlatolt …, priority 2010, dated 2014)
